From patent US20090048182A1, “Cosmetic Use of at Least One Natural Ac-N-Ser-Asp-Lys-Pro-Tetrapeptide or One of Its Analogues as Agent for Slowing Down Loss of Hair and/or Stimulating Hair Growth” (CENTRE NATIONAL DE LA RECHERCHE SCIENTIFQUE (CNRS, priority 2005, published 2009)
Residues, ends and D or L forms follow the SMILES beside them.

Tests used:
[1] = system: neo-keratinocytes / epithelial sheaths of isolated hairs; assay: General morphology of histological cuts of isolated hairs (Masson Trichromium): neo-keratinocytes, epithelial sheaths; format: cell-based, human
Procedure: (§1) Study of the stimulating activity of tetrapeptide AcSDKP on the growth of isolated hairs maintained in a state of ex vivo survival. This study was conducted on 66 human hair explants obtained from scalp-plasty.
(§2) Hairs comprised of hair follicles were isolated by micro dissection and individually placed in wells (96-well culture plate) and maintained in survival for 15 days under conventional tissue culturing conditions (37° C., 5% CO2) in Williams medium.
(§3) Tetrapeptide AcSDKP added to the culture medium was tested at three concentrations: 10^−4 M, 10^−7 M and 10^−10 M. Minoxidil® (2,4-diamino 6-piperidinopyrimidine 3-oxide) at a concentration of 10^−5 M was used as a positive control.
(§4) Culture mediums containing the compounds to be tested were renewed every three days.
(§5) On D8 and D15 of treatment, six hairs from each batch (untreated control, Minoxidil®, +AcSDKP 10^−4 M, +AcSDKP 10^−7 M, +AcSDKP 10^−10 M) were removed and prepared for histological study.
(§6) Three explants from each batch were fixed in ordinary Bouin and the three other hairs were frozen and stored at −80° C.
(§7) In addition to measurements of the length of each hair, the general morphology of each hair was analysed and the expression of laminin 5 and collagen IV, two constituents of the basal membrane, was evaluated. Moreover, immunolabeling with anti-Ki67 antibodies (nuclear protein expressed in growing cells) was carried out of cells in mitosis in order to establish the mitotic index of follicle structures.
Analysis of the general morphology of histological cuts stained with Masson Trichromium focusing on the area between the opening of the sebaceous glands and the hair bulb.
Hairs cultured on D0 naturally undergo changes during survival as is observed after an in vivo graft. The restructuring effect of AcSDKP was visualised through the appearance of neo-keratinocytes along the conjunctival sheath which migrate from the bulge and to a lesser extent from the bulb, two regions where stem cells are found. […] This effect leads to clear appearance of neo-keratinocytes along the length of the hair, from the epidermis to the bulb. The structure of the neo-keratinocytes formed in this way is uniform and stratified. It varies as a function of treatment time and AcSDKP concentration. The clearest activity was found on D15 of treatment with AcSDKP at 10^−10 M.

collagen IV = assay: Immunolabeling of basal membrane collagen (type IV) on frozen cuts of isolated hairs; format: cell-based, human
Procedure: as §1, §2, §3, §4, §5, §6, §7
Immunolabeling of type IV collagen was carried out on frozen cuts of the control hairs and hairs treated with AcSDKP or Minoxidil® in order to quantify this constituent of the basal membrane which separates the dermal compartment from the epithelial compartment.

laminin 5 = assay: Immunolabelling of laminin 5 in isolated hairs; format: cell-based, human
Procedure: Study of the stimulating activity of tetrapeptide AcSDKP on the growth of isolated hairs maintained in a state of ex vivo survival. This study was conducted on 66 human hair explants obtained from scalp-plasty. Hairs comprised of hair follicles were isolated by micro dissection and individually placed in wells (96-well culture plate) and maintained in survival for 15 days under conventional tissue culturing conditions (37° C., 5% CO2) in Williams medium. Tetrapeptide AcSDKP added to the culture medium was tested at three concentrations: 10^−4 M, 10^−7 M and 10^−10 M. Minoxidil® (2,4-diamino 6-piperidinopyrimidine 3-oxide) at a concentration of 10^−5 M was used as a positive control. Culture mediums containing the compounds to be tested were renewed every three days. On D8 and D15 of treatment, six hairs from each batch (untreated control, Minoxidil®, +AcSDKP 10^−4 M, +AcSDKP 10^−7 M, +AcSDKP 10^−10 M) were removed and prepared for histological study. Three explants from each batch were fixed in ordinary Bouin and the three other hairs were frozen and stored at −80° C. In addition to measurements of the length of each hair, the general morphology of each hair was analysed and the expression of laminin 5 and collagen IV, two constituents of the basal membrane, was evaluated. […]

[2] = system: isolated human hair explants (hair follicles); assay: Growth (length) of isolated human hairs maintained in ex vivo survival; format: cell-based
Procedure: as §1, §2, §3, §4
Hairs were photographed using a microscope and a CCD camera coupled to acquisition software and archiving.
Each hair was measured on D0, D3, D6, D8, D10, D13 and D15 using a LEICA IM1000 measurement module to give measurements in μm.
Each hair was photographed and its length evaluated using software giving values in μm.

[3] = system: cells in mitosis (Ki67) in the epithelial sheath of hair; assay: Cell proliferation: anti-Ki67 immunolabeling of cells in mitosis along the epithelial sheath of isolated hairs; format: cell-based, human
Procedure: as §1, §2, §3, §4, §5, §6, §7
This study was conducted on cuts of frozen hairs.

keratin 19 (CK19) = assay: Immunolabeling of keratin 19 (CK19), epithelial stem cell marker, on frozen cuts of isolated hairs; format: cell-based, human
Procedure: as §1, §2, §3, §4, §5, §6
Immunolabeling of keratin 19 (CK19) was carried out on frozen cuts of control hairs and hairs treated with AcSDKP or Minoxidil® in order to evaluate the proportion of undifferentiated primitive cells (or even stem cells) present in the external epithelial sheaths of the hair follicles. […]

Row | Compound | Adherence of epithelial sheaths to collagen ([1]; D8, Minoxidil) | Neo-keratinocyte sites ([1]; D8, Minoxidil 10 μM) | Neo-keratinocyte structure compared to untreated hair ([1]; D15, Minoxidil 10^−5 M) | Collagen IV expression (collagen IV; hair treated with Minoxidil) | Restructuring of the epithelial sheaths ([1]; AcSDKP in the culture medium, as of D8 of treatment) | Adherence of epithelial sheaths to collagen ([1]; D8, AcSDKP 10^−4 M) | Neo-keratinocyte sites ([1]; D8, AcSDKP 10^−4 M) | Adherence of epithelium to the underlying collagen ([1]; D8, the two active concentrations (10^−7 M and 10^−10 M)) | Neo-keratinocyte structure thickness ([1]; D15, AcSDKP 10^−4 M, 10^−7 M and especially 10^−10 M) | Laminin 5 increase in the median zone of hair (laminin 5; D8, AcSDKP 10^−10 M) | Expression of laminin 5 (laminin 5; D15, AcSDKP 10^−7 M) | Hair growth (length of hair) ([2]; 10^−10 M in culture medium, D15 of treatment) | Hair growth (length of hair shafts) ([2]; higher concentrations (10^−4 M, 10^−7 M), D15) | Increase in number of cells in mitosis compared to control hair ([3]; 10^−10 M, D8 of treatment) | Average number of cells in mitosis per mm of hair ([3]; AcSDKP 10^−7 M, D8) | Number of cells in mitosis in treated hair compared to control hair ([3]; three concentrations tested (10^−4 M, 10^−7 M, 10^−10 M)) | Increase in CK19 levels (keratin 19 (CK19); D8 and D15, AcSDKP 10^−10 M) | Expression of CK19 compared to control hair and Minoxidil-treated hair (keratin 19 (CK19); hair kept in survival in presence of the tetrapeptide) | Increase in collagen IV levels (collagen IV; D8 and D15, AcSDKP 10^−10 M) | Collagen IV expression in the bulb and median section of hair (collagen IV; as of D8, AcSDKP at the three concentrations tested)
1 | Nc1cc(N2CCCCC2)nc(N)[n+]1[O-] [Minoxidil ®, 2,4-diamino 6-piperidinopyrimidine 3-oxide, reference compound] | more or less detached | absent | slightly more structured | often less evident | – | – | – | – | – | – | – | – | – | – | – | – | – | – | – | –
2 | CC(=O)N[C@@H](CO)C(=O)N[C@@H](CC(=O)O)C(=O)N[C@@H](CCCCN)C(=O)N1CCC[C@H]1C(=O)O [AcSDKP, CH3CO-Ser-Asp-Lys-Pro-OH] (Ac-SDKP-OH) | – | – | – | – | leads to restructuring of the epithelial sheaths | more or less detached | absent | adheres fully | increasingly thicker | considerably more marked | higher | significantly stimulates hair growth | no significant difference | +300% | 34 per mm of hair | significantly increases the number of cells in mitosis | maximal | significantly greater | all the more marked | very clear increase in collagen IV
